Our source for the Activity values is ChEMBL document CHEMBL4420075, “Seriniquinones, melanoma-specific anticancer agents” (2016).

The target of this assay is T1, Dermcidin (Homo sapiens) (UniProt P81605).
T1 sequence (whole entry): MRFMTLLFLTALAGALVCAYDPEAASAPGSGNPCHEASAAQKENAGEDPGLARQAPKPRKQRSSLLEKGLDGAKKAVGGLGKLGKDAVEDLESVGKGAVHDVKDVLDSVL
The experiment in a line: Covalent binding affinity to DCD-1L (unknown origin) at 50 uM incubated for 24 hrs by denatured SDS-PAGE gel electrophoresis.

The source made the active and inactive calls. No cut-off for these calls is given here.

On to `CC(C)=CCCc1ccc2c(=O)c3c(sc4c(=O)c5ccccc5c(=O)c43)c(=O)c2c1`, for which the result was Active.

Turning to `O=C(O)CCc1ccc2c(=O)c3c(sc4c(=O)c5ccccc5c(=O)c43)c(=O)c2c1`, the result was Active.
